Several values for one entry are separate records, joined by “and”; a condition that tells them apart may be missing. Equal entries are not always repeated. Where two headings read alike, the source gives them in different places.
How the values were obtained:
P-gp = target: T1, P-gp (Homo sapiens, UniProt P08183); test: P-glycoprotein (P-gp) substrate assay in Caco-2 cells with and without verapamil; assay type: in vitro ADME; conditions: Caco-2, efflux ratio with/without verapamil
T1 construct: host or cells: Caco-2
Protocol: These experiments were performed by an outside vendor (Eurofins, France). C21 was tested in P-gp substrate assessment assays at 10 µM. The A to B and B to A permeability was measured in Caco-2 cells in the presence and absence of verapamil, a P-gp inhibitor. Efflux ratios (E) were calculated based on the apparent B–A and A–B permeability with and without verapamil. In each experiment, the respective reference compound was tested concurrently with the test compound to assess the assay reliability. Fluorescein was used as the cell monolayer integrity marker. Fluorescein permeability assessment (in the A–B direction at pH 7.4 on both sides) was performed after the permeability assay for the test compound.

hM3Dq [1] = target: T2, hM3Dq (Homo sapiens, UniProt P20309, A239G/Y149C)
Description: (§2) Wild-type mice (C57BL/6J) were ordered from Jackson Laboratories and rats (Sprague–Dawley) were ordered from Charles River. Rodents were male and ordered at ~6 weeks of age. Transgenic mice were bred at NIDA breeding facility. […] Three male rhesus monkeys (Macaca mulatta) weighed 8–12 kg. All experiments and procedures complied with all relevant ethical regulations for animal testing and research and followed NIH guidelines and were approved by each institute’s animal care and use committees.
(§3) Ten minutes after injection, animals were placed in an open field arena (Opto-varimex ATM3, Columbus Instruments) and their locomotor activity was tracked during 60 min as infrared beam crossings and traveled distance was converted to cm. Animals were repeatedly tested on consecutive sessions (after an initial habituation session with no drug treatment) in a counterbalanced design.

hM3Dq [2] = target: T2, hM3Dq; test: Intracellular Ca2+ assay (GCaMP6f) in HEK-293 cells transfected with hM3Dq; assay type: cell-based; set-up: host or cells: HEK-293; conditions: for hM3Dq activation, concentration-response points: replicates
Protocol: (§1) The indicated amount of cDNA was transfected into HEK-293 cells using polyethylenimine (PEI; Sigma-Aldrich) in a 1–2 DNA:PEI ratio. Cell harvesting for radioligand binding experiments or signaling assays were performed approximately 48 h after transfection.
Intracellular Ca^2+ concentration was monitored using the fluorescent Ca^2+ biosensor GCaMP6f. […] The net change in intracellular Ca^2+ concentration was expressed as F − F0 where F is the fluorescence at a given concentration of ligand and F0 is the average of the baseline values (fluorescence values of buffer-treated wells).

hM4Di [3] = target: T3, hM4Di (Homo sapiens, UniProt P08173, A203G/Y113C); test: BRET Galpha-o1 protein activation assay in HEK-293 cells transfected with hM4Di; assay type: cell-based; set-up: host or cells: HEK-293; conditions: for hM4Di activation, concentration-response points: replicates
T3 sequence (P08173 1-479 Y113C/A203G): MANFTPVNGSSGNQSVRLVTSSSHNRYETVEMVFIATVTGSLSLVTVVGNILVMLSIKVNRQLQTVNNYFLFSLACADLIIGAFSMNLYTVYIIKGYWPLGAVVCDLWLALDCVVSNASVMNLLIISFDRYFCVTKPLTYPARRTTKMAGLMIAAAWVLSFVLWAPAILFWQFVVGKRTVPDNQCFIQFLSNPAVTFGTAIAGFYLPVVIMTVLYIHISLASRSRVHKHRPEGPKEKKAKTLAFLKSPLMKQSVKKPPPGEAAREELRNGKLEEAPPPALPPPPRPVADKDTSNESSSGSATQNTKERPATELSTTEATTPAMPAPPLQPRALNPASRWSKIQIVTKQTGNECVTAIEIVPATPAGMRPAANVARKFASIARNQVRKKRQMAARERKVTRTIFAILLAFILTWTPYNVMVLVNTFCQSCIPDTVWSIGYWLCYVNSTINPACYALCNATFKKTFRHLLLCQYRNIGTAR
Protocol: as §1
BRET assays were performed to detect receptor ligand-induced Gαo1 protein activation. […] Forty-eight hour after transfection cells were harvested, washed and resuspended in phosphate-buffered saline (PBS). Approximately, 200,000 cells/well were distributed in 96-well plates, and 5 µM Coelenterazine H (substrate for luciferase) was added to each well. Five minutes after addition of Coelenterazine H, ligands were added to each well. […] Results were calculated for the BRET change (BRET ratio for the corresponding drug minus BRET ratio in the absence of the drug) 5 min after the addition of the ligands.

WT mice = test: Locomotor activity in WT mice
Description: as §2, §3

hM4Di [4] = target: T3, hM4Di; test: Locomotor activity in D1-hM4Di mice
Description: as §2, §3

striatal DREADDs = test: [11C]clozapine PET DREADD occupancy in AAV-DREADD mice
Protocol: Animals were anesthetized with isoflurane or a mix of ketamine/xylazine and prepped on a stereotaxic apparatus (Kopf, Germany). […] When indicated, animals were pretreated with vehicle or the indicated drug 10 min before the injection of the PET radiotracer. Total acquisition time was 60 min.
In all cases, the PET data were reconstructed and corrected for dead-time and radioactive decay. All qualitative and quantitative assessments of PET images were performed using the PMOD software environment (PMOD Technologies, Zurich Switzerland). Binding potential BPND (a relative measure of specific binding) was calculated using a reference tissue model using the cerebellum as a reference tissue in rodents. In macaques, the kinetic data were fitted to a two-tissue compartment model and the concentration of parent in plasma was used as an input function, then the volume of distribution ratios compared to cerebellum were calculated to establish BPND. In all cases, the dynamic PET images were coregistered to MRI templates and time-activity curves were generated using predefined volumes of interest (macaques) or manually drawn in rodents and the described analyses were performed. Receptor occupancy was calculated using the formula: occupancy = (BPND^0 − BPND^Drug)/BPND^0 × 100, where BPND^0 is the binding potential of the baseline condition and BPND^Drug the binding potential when the animals were pretreated with the drug.

hM3Dq [5] = target: T2, hM3Dq; test: [3H]clozapine competition binding, membranes of HEK-293 cells expressing hM3Dq
Protocol: (§4) Cells were routinely tested for myclopasma contamination (MycoAlert® Mycoplasma Detection Kit, Lonza). Cells were seeded on 60 cm^2 dishes at 4 × 10^6 cells/dish 24 h before transfection. The indicated amount of cDNA was transfected into HEK-293 cells using polyethylenimine (PEI; Sigma-Aldrich) in a 1–2 DNA:PEI ratio. Cell harvesting for radioligand binding experiments or signaling assays were performed approximately 48 h after transfection.
(§5) Cells were suspended in Tris-HCl 50 mM pH 7.4 supplemented with protease inhibitor cocktail (1:100, Sigma-Aldrich, St. Louis, MO, USA). The dissected brain tissue was diluted in Tris-HCl 50 mM buffer supplemented with protease inhibitor cocktail (1:1000). HEK-293 cells or brain tissue were disrupted with a Polytron homogenizer (Kinematica, Basel, Switzerland). Homogenates were centrifuged at 48,000g (50 min, 4 °C) and washed twice in the same conditions to isolate the membrane fraction. Protein was quantified by the bicinchoninic acid method (Pierce). […] In all cases, free and membrane-bound radioligand were separated by rapid filtration of 500-μl aliquots in a 96-well plate harvester (Brandel, Gaithersburg, MD, USA) and washed with 2 ml of ice-cold Tris-HCl buffer. […] One-site competition curves were fitted using Prism 7 (GraphPad Software, La Jolla, CA, USA). Ki values were calculated using the Cheng–Prusoff equation.

hM4Di [6] = target: T3, hM4Di; test: [3H]clozapine competition binding, membranes of HEK-293 cells expressing hM4Di
Protocol: as §4, §5

hM3Dq [7] = target: T2, hM3Dq; test: Locomotor activity in TH-hM3Dq rats; assay type: in vivo, rat; set-up: host or cells: TH-expressing neurons of the ventral tegmental area in TH:Cre rats (AAV transduction, in vivo); conditions: for Locomotor activity, individual animals (Figure 3 Panel G): listed as J60
Protocol: Tyrosine hydroxylase (TH):Cre rats (n = 9; founder, K. Deisseroth lab) or WT littermates (n = 9) were bilaterally injected with AAV2 hSyn-DIO-hM3Dq-mCherry (1ul/hemisphere, Addgene), and allowed to recover for 2 + weeks. […] Vehicle was administered on 2 separate days, and average locomotion was used for comparison with DREADD agonists. Cohort 2 underwent the same procedures, but with a 4 h testing session, and the following IP injections: vehicle (x2), JHU37152 (0.01–0.3 mg kg^−1), JHU37160 (0.01–0.3 mg kg^−1). All drugs were dissolved in 5% DMSO in saline, and injected 1 ml kg^−1.

T2 sequence (P20309 whole entry Y149C/A239G): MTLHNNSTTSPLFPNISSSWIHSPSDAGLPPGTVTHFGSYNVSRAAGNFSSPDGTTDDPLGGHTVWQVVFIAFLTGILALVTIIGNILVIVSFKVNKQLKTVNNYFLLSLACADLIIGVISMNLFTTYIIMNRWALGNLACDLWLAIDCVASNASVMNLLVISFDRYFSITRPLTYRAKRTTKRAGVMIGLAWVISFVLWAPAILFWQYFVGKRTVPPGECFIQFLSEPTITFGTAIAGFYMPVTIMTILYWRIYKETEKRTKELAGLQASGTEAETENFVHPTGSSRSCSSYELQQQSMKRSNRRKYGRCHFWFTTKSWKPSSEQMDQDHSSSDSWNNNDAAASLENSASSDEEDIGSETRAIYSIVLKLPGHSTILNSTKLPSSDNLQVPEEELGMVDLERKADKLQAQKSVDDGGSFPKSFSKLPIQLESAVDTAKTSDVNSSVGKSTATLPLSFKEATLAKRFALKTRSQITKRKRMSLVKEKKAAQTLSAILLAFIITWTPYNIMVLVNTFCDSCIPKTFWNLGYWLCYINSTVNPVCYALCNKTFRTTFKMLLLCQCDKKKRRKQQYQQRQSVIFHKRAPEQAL
T1 sequence (P08183 whole entry): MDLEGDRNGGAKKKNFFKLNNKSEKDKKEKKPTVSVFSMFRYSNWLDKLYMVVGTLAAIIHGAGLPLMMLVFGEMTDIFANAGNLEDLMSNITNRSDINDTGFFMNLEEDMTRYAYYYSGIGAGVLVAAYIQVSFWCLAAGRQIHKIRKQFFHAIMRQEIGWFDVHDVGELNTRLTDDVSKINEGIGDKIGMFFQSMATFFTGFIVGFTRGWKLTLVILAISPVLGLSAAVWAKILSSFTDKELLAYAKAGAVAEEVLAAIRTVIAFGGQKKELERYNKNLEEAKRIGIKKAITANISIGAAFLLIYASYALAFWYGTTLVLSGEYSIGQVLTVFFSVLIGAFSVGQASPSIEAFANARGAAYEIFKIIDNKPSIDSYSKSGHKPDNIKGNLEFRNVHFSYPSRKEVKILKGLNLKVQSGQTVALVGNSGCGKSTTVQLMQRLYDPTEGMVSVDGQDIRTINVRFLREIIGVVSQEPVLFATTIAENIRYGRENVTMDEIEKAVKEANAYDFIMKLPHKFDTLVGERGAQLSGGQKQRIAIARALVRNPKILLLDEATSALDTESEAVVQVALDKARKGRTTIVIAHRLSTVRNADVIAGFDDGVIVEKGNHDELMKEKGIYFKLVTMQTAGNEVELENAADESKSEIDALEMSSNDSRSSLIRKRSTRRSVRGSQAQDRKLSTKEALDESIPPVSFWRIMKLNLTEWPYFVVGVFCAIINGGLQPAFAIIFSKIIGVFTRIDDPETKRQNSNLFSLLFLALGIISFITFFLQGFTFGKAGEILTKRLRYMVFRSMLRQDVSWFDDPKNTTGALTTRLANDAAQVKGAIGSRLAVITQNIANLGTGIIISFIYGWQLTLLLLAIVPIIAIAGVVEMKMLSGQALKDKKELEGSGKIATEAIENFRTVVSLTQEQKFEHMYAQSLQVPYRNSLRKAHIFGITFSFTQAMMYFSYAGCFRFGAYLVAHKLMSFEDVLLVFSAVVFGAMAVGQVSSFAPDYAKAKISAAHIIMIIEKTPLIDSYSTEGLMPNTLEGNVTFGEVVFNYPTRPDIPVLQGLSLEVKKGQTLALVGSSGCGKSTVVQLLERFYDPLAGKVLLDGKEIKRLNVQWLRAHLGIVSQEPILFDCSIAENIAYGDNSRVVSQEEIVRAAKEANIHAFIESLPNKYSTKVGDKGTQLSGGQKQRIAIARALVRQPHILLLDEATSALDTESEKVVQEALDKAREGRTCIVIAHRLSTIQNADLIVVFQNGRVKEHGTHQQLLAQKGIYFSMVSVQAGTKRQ

CCN1CCN(C2=Nc3cc(Cl)ccc3Nc3c(F)cccc32)CC1 [JHU37160, 8-Chloro-11-(4-ethylpiperazin-1-yl)-4-fluoro-5H-dibenzo[b,e][1,4]diazepine]
P-gp substrate (P-gp): Neither JHU37152 nor JHU37160 were P-gp substrates | P-gp substrate (P-gp; listed as J60): none of these compounds is a substrate for P-gp | locomotor activity (hM3Dq [1]; D1-hM3Dq mice, 0.01 to 1 mg kg-1): selectively inhibiting locomotor activity | EC50 (hM3Dq [2]; fluorescent assay in HEK-293 cells): 18.5 nM | EC50 (hM4Di [3]; BRET-based assay in HEK-293 cells): 0.2 nM | locomotor activity (WT mice; WT mice, 0.01 to 1 mg kg-1): without any significant locomotor effects | Locomotor activity, individual animals (Figure 3 Panel A) (WT mice; WT mice, dose 0.01): 15.4443 and 132.603 and 147.829 and 129.309 and 75.7603 and 45.5126 and 63.7894 and 145.958 and 96.1391 and 10.074 and 65.3531 and 48.0503 and 10.0356 and 25.3389 and 152.354 and 157.609 and 175.04 | Locomotor activity, individual animals (Figure 3 Panel A) (WT mice; WT mice, dose 0.1): 28.3765 and 136.794 and 39.0145 and 128.13 and 27.5178 and 138.037 and 95.0881 and 162.364 and 107.636 and 24.3135 and 117.274 and 117.261 and 37.3098 and 136.435 and 99.1126 and 117.312 and 123.413 | Locomotor activity, individual animals (Figure 3 Panel A) (WT mice; WT mice, dose 1): 10.497 and 121.35 and 79.3619 and 104.303 and 59.97 and 24.8262 and 41.2959 and 159.16 and 61.4696 and 5.601 and 141.242 and 63.7125 and 17.4822 and 64.5071 and 75.0041 and 144.933 and 145.945 | locomotor activity (hM4Di [4]; D1-hM4Di mice, 0.01 to 1 mg kg-1): selectively inhibiting locomotor activity | Locomotor activity, individual animals (Figure 3 Panel C) (hM4Di [4]; dose 0.01): 87.297 and 55.7522 and 80.3935 and 127.49 and 164.341 and 150.985 and 118.596 and 28.6623 and 109.457 and 25.9025 and 156.84 | Locomotor activity, individual animals (Figure 3 Panel C) (hM4Di [4]; dose 0.1): 22.2583 and 26.4102 and 36.6386 and 50.3064 and 38.3173 and 43.9761 and 103.495 and 48.2345 and 24.5922 and 6.944 and 42.5594 | Locomotor activity, individual animals (Figure 3 Panel C) (hM4Di [4]; dose 1): 71.4509 and 37.5721 and 8.672 and 75.5783 and 18.1309 and 89.8357 and 75.9222 and 7.305 and 23.6013 and 9.934 and 15.3384 | occupancy of striatal DREADDs (striatal DREADDs; 0.1 mg kg-1 IP): 15–20% | Ki (hM3Dq [5]): 1.9 nM | Ki (hM4Di [6]): 3.6 nM | improved affinity compared to C21 (hM4Di [6]): ~ 25 fold | Locomotor activity, individual animals (Figure 3 Panel G) (hM3Dq [7]; dose 0.01): 279.417 and 1024.06 and 48.7042 and 167.624 and 1237.61 and 111.992 and 663.301 | Locomotor activity, individual animals (Figure 3 Panel G) (hM3Dq [7]; dose 0.1): 1035.55 and 900.553 and 68.6081 and 759.611 and 1367.43 and 667.9 and 184.82 | hM3Dq-stimulated locomotion (hM3Dq [7]; TH-hM3Dq rats, 0.01-0.3 mg kg-1): robust, selective increases in hM3Dq-stimulated locomotion

c1ccc2c(c1)N=C(N1CCNCC1)c1ccccc1N2 [C21]
P-gp substrate (P-gp): none of these compounds is a substrate for P-gp | behavior (hM3Dq [1]; D1-hM3Dq mice, 10 mg/kg): seizure-like behavior | locomotor activity (hM3Dq [1]; D1-hM3Dq mice, 0.1 and 1 mg/kg): robust decrease of locomotor activity | lowest dose activating hM3Dq (hM3Dq [1]; rodents (rats and mice)): 0.1 mg/kg | hM3Dq activation, concentration-response points (hM3Dq [2]; Log [compound] -5): 93.1143 and 77.3513 and 111.083 | hM3Dq activation, concentration-response points (hM3Dq [2]; Log [compound] -6): 96.4744 and 82.7674 and 98.8645 | hM3Dq activation, concentration-response points (hM3Dq [2]; Log [compound] -7): 74.044 and 103.149 and 78.6539 | hM3Dq activation, concentration-response points (hM3Dq [2]; Log [compound] -8): 83.0838 and 91.1589 and 81.1662 | hM3Dq activation, concentration-response points (hM3Dq [2]; Log [compound] -9): 6.817 and 0.07299 and 9.557 | hM3Dq activation, concentration-response points (hM3Dq [2]; Log [compound] -10): -3.555 and -5.9944 and 2.166 | hM3Dq activation, concentration-response points (hM3Dq [2]; Log [compound] -11): -13.1516 and -2.046 and 1.55 | hM3Dq activation, concentration-response points (hM3Dq [2]; Log [compound] -12): -8.693 and -2.2785 and 8.813 | hM3Dq-mediated intracellular Ca2+ increases (hM3Dq [2]; transfected HEK-293 cells): potent intracellular Ca^2+ increases comparable to that of clozapine | hM4Di activation, concentration-response points (hM4Di [3]; Log [compound] -4): 96.8817 | hM4Di activation, concentration-response points (hM4Di [3]; Log [compound] -4.5): 116.397 | hM4Di activation, concentration-response points (hM4Di [3]; Log [compound] -5): 108.743 and 111.119 and 118.355 | hM4Di activation, concentration-response points (hM4Di [3]; Log [compound] -6): 104.765 and 108.926 and 107.08 | hM4Di activation, concentration-response points (hM4Di [3]; Log [compound] -7): 91.0167 and 106.137 and 98.8868 | hM4Di activation, concentration-response points (hM4Di [3]; Log [compound] -8): 65.4069 and 99.8095 and 89.0469 | hM4Di activation, concentration-response points (hM4Di [3]; Log [compound] -9): 48.391 and 67.2323 and 60.3348 | hM4Di activation, concentration-response points (hM4Di [3]; Log [compound] -10): 22.6996 and 44.1322 and 29.3744 | hM4Di activation, concentration-response points (hM4Di [3]; Log [compound] -12): 8.666 | hM4Di activation, concentration-response points (hM4Di [3]; Log [compound] -15): 7.3972 and 3.296 and 3.683 | Gi/o activation, potency relative to clozapine (hM4Di [3]; cells or tissue expressing hM4Di): less potent than clozapine | locomotor activity / non-specific effects (WT mice; WT mice, 10 mg/kg): produced non-specific effects | doses producing off-target effects (WT mice; mice without DREADDs): higher than 1 mg kg^-1 | locomotor activity (WT mice; mouse, in vivo): did not affect locomotor activity | locomotor activity (hM4Di [4]; D1-hM4Di mice, 1 mg/kg): small but significant decrease in locomotor activity | behavior (hM4Di [4]; D1-hM4Di mice, 10 mg/kg): sedation | dose required to activate hM4Di (hM4Di [4]; rodents): at least 1 mg kg^-1 | in vivo DREADD occupancy ([11C]CLZ displacement) (striatal DREADDs; 1 mg/kg IP): ~ 10% | less affinity than CLZ (hM3Dq [5]; DREADDs in HEK-293 cells): 100 fold | Ki (hM3Dq [5]; read-out: affinity (approximate, for equipotent concentrations), DREADD not specified): ~200 nM | Ki (hM3Dq [5]; read-out: hM3Dq Ki): 230 nM | Ki (hM4Di [6]; read-out: hM4Di Ki, [3H]clozapine competition, HEK-293 membranes): 91 nM | locomotor activity (hM3Dq [7]; TH-hM3Dq rats, 1 or 5 mg/kg IP): significant increases in locomotor activity
